Assay [1] deals with adjuvant-induced arthritis in rats. As to the kind of experiment: Established Adjuvant-Induced Arthritis in Rats. As to conditions: for ED50: Rattus norvegicus, read-out: Adjuvant Arthritic ED50; for percent reduction in paw volume: at 9 mg/kg. Type of assay: in vivo, Charles River Lewis male rats.
The test system of assay [2] is phenylquinone-induced writhing in mice. The experiment in a line: Phenylquinone Writhing Test. Type of assay: in vivo, female white mice. Particulars: Mus musculus, read-out: Phenylquinone Writhing (PQW) ED50. The method, then: Phenylquinone Writhing Test
A test compound suspended in 1% methylcellulose was given orally to fasted (17-21 hours) female white mice, 5-20 animals per double blind test. Aqueous (0.01% phenyl-p-benzoquinone) phenylquinone, 0.20 ml per mouse, was injected intraperitoneally 6 minutes before observations were begun.
Background: An intraperitoneal irritant provokes the stretching counted in writhing tests.

The mark [3] stands for this setting: ED50% decrease from control paw volume (uninjected, left hind paw), oral, daily for 7 days, read one day after last dose.
[4] abbreviates: effective analgesic dose for 50% of the mice, oral, 0.01% phenylquinone 0.20 ml i.p.
Setting [5] is: oral, daily for 7 days, read one day after last dose.

Like-named read-outs stand apart in the source and are kept apart here. Where only a bound is given, the exact number is not on record here.

The term ED50 denotes the dose at which the effect has come halfway, by size or by number of responders. Regarding `CC(=O)Oc1ccccc1C(=O)O` [Aspirin, reference compound], the ED50 in assay [1] (po) stood at 305 mg/kg; in assay [2] (po), 135 mg/kg. Turning to `COc1ccc(-c2cc(C(F)(F)F)n(C)c2-c2ccc(OC)cc2)cc1` [Example 1, 4,5-Bis(4-methoxyphenyl)-1-methyl-2-trifluoromethyl-1H-pyrrole], the ED50 in assay [1] (setting [3]) came to 1.25 mg/kg; in assay [2] (setting [4]), 16 mg/kg. In the case of `COc1ccc(-c2cc(C(F)(F)C(F)(F)F)n(C)c2-c2ccc(OC)cc2)cc1` [Example 2, 4,5-bis(4-methoxyphenyl)-1-methyl-2-pentafluoroethyl-1H-pyrrole], the “percent reduction in paw volume” value in assay [1] (setting [5]) is listed as 32%. Besides, the median effective dose (ED50) in assay [2] (setting [4]) was 1.8 mg/kg. Consider `CCn1c(C(F)(F)F)cc(-c2ccc(OC)cc2)c1-c1ccc(OC)cc1` [Example 3], for which the ED50 in assay [1] (setting [3]) came out at 18 mg/kg; in assay [2] (setting [4]), 47 mg/kg. In the case of `Cn1c(C(F)(F)F)cc(-c2ccc(Cl)cc2)c1-c1ccc(Cl)cc1` [Example 4], the “percent reduction in paw volume” value in assay [1] (setting [5]) is reported as 29%. As to `Cc1ccc(-c2cc(C(F)(F)F)n(C)c2-c2ccc(C)cc2)cc1` [Example 5], the “percent reduction in paw volume” value in assay [1] (setting [5]) came to 28%. In addition, the ED50 in assay [2] (setting [4]) was 18 mg/kg. As to `CSc1ccc(-c2c(-c3ccc(F)cc3)cc(C(F)(F)F)n2C)cc1` [Example 6, 4-(4-fluorophenyl)-1-methyl-5-(4-methylthiophenyl)-2-trifluoromethyl-1H-pyrrole], the 50% effective dose (ED50) in assay [1] (setting [3]) was 1.8 mg/kg; in assay [2] (setting [4]), 16 mg/kg. As for `Cn1c(C(F)(F)F)cc(-c2ccc(F)cc2)c1-c1ccc(S(C)(=O)=O)cc1` [Example 7, 4-(4-fluorophenyl)-1-methyl-5-(4-methylsulfonylphenyl)-2-trifluoromethyl-1H-pyrrole], the ED50 in assay [1] (setting [3]) was 3.5 mg/kg. As to `CSc1ccc(-c2cc(C(F)(F)F)n(C)c2-c2ccc(SC)cc2)cc1` [Example 8, 1-methyl-4,5-bis(4-methylthiophenyl)-2-trifluoromethyl-1H-pyrrole], the ED50 was 1.8 mg/kg in assay [1] (setting [3]) and more than 108 mg/kg in assay [2] (setting [4]).

On to `CC(C)Cc1ccc(C(C)C(=O)O)cc1` (stereo not shown) [Ibuprofen, reference compound], for which the ED50 turned out to be 100 mg/kg in assay [1] (setting [3]) and 10 mg/kg in assay [2] (setting [4]). With `COc1ccc2c(c1)c(CC(=O)O)c(C)n2C(=O)c1ccc(Cl)cc1` [Indomethacin, reference compound], the ED50 in assay [1] (po) is 0.3 mg/kg; in assay [2] (po) it was 0.35 mg/kg. On to `CCCCC1C(=O)N(c2ccccc2)N(c2ccccc2)C1=O` [Phenylbutazone, reference compound], for which the ED50 in assay [1] (setting [3]) is 10 mg/kg; in assay [2] (setting [4]), 80 mg/kg.

Source of the values: US4477463A, “Antiinflammatory and/or analgesic 1-alkyl-4,5-diaryl-2-fluoroalkyl-1H-pyrroles” (E. I. Du Pont de Nemours and Company, priority 1982, dated 1984).
